Assay results reported in US20250387322A1, “DRUG DELIVERY AGENTS FOR PREVENTION OR TREATMENT OF PULMONARY DISEASE” (UNIVERSITY INDUSTRY FOUNDATION, YONSEI UNIVERSITY WONJU …, priority 2018, published 2025).

How the values were obtained:
[1] = test system: pulmonary fibrosis animal model; experiment: Bleomycin (BLM) pulmonary fibrosis model: histopathology, immunohistochemistry, micro-CT; type: in vivo; details: FIG. 15A
Description: FIG. 15A illustrates an effect of nintedanib-loaded PLGA disc particles according to one embodiment of the present disclosure, and FIGS. 15B to 15E illustrate experimental results according to each comparison group. […] FIGS. 15A to 15E illustrate results obtained by evaluating tissue morphology and degrees of inflammation and fibrosis through histopathological and immunohistochemical changes. Also, a scale bar in FIG. 15A is 100 μm. […] At this time, Nib is orally administered in the BLM and Nib administered group.

[2] = in vivo; cited from earlier work
[3] = in vivo; cited from earlier work; remark: listed apart in the source
[4] = test system: lung cancer metastasis model; experiment: Optical imaging of carrier/drug distribution in lung cancer metastasis model; type: in vivo
Experimental: FIG. 9 is an optical microscope image of major organs 3 hours after injecting a lung disease drug delivery carrier according to one Example of the present disclosure and Comparative Example into a lung cancer metastasis model. A GFP filter image may identify the presence or absence of cancer and a location thereof by labeling cancer cells with GFP (green fluorescent protein).
FIG. 10 is an optical microscope image of a lung cancer metastasis model injected with a lung disease drug delivery carrier according to one Example of the present disclosure.
FIG. 18A is an image of photographing the locations of cancer tumor and the locations of an injected DOX-DPP (doxorubicin-loaded disc-shaped drug delivery carrier) in an animal model, and FIG. 18B illustrates comparison of the locations of cancer tumor in major organs and amounts of doxorubicin alone (free DOX) or DOX-DPP in major organs. In this regard, the scale bar in FIG. 18A means 5 mm, and the scale bar in FIG. 18B means 20 mm. In addition, the cancer is a cancer cell expressing a GFP green fluorescent protein.

[5] = test system: C57BL/6 mice with lung cancer

Compound: COC(=O)c1ccc2c(c1)NC(=O)/C2=C(\Nc1ccc(N(C)C(=O)CN2CCN(C)CC2)cc1)c1ccccc1 [Nib, nintedanib]
- inflammatory response and fibrous mass (histopathology) [1]: an inflammatory response is shown and the formation of a dense fibrous mass is shown

Compound: Cc1ccc(=O)n(-c2ccccc2)c1 [pirfenidone]
- bioavailability [2]: 4.7%

Compound: CCNC(=O)[C@@H]1CCCN1C(=O)[C@H](CCCNC(=N)N)NC(=O)[C@H](CC(C)C)NC(=O)[C@@H](CC(C)C)NC(=O)[C@H](Cc1ccc(O)cc1)NC(=O)[C@H](CO)NC(=O)[C@H](Cc1c[nH]c2ccccc12)NC(=O)[C@H](Cc1c[nH]cn1)NC(=O)[C@@H]1CCC(=O)N1 [Leuprolide]
- bioavailability compared to the subcutaneous route [3]: 50%

Compound: COc1cccc2c1C(=O)c1c(O)c3c(c(O)c1C2=O)C[C@@](O)(C(=O)CO)C[C@@H]3O[C@H]1C[C@H](N)[C@H](O)[C@H](C)O1 [Comparative Example 2, doxorubicin]
- accumulation in major organs ([4]; 3 hours after injecting, lung cancer metastasis model, FIG. 9): accumulated in the liver and kidneys in addition to the lungs
- distribution of drug in major organs ([4]; animal model with GFP-expressing cancer, FIGS. 18A, 18B): the drug is distributed even in major organs
- metastatic tumor nodules in lung ([5]; FIG. 19B): more metastatic tumor nodules appeared
- cardiac toxicity ([5]; long-period administration): cardiac toxicity appears
- inflammation in heart and kidney ([5]; organ tissue images, FIG. 20): strong inflammatory responses occur in the heart and kidney
